Reference: patent US11419840B2, “Compositions and methods comprising C16:1N7-palmitoleate” (Tersus Life Sciences, LLC, priority 2011, dated 2022)

How the values were obtained:
[1] = tested on: Apo E knockout mice; assay: Quantification of aorta lesions (en face Sudan IV staining); format: in vivo, mouse; details: rosuvastatin 20 mg/kg/day; its own control 21.9 ± 2.9, P<0.05
Description: Thirty-four male Apo E knockout mice were obtained from Jackson Laboratories (Bar Harbor, Me.). The mice were fed with normal mouse chow until 2 months of age and randomly allocated into two groups (n=17 each). One group of mice was then fed a control Western high-fat diet (F5722, fat 20%, cholesterol 2.1 gm/kg). The other group was fed a composition comprising C16:1n7-palmitoleate (CCO-Oil 20 wt %, cholesterol 2.1 gm/kg). […] Water was freely available throughout the course of the study. Blood samples were obtained 8 and 12 weeks after initiation of the diet. At 12 weeks, all mice were sacrificed by intraperitoneal injection of ketamine/xylazine. […] Data were presented as mean±SD. Statistical analysis was performed with t-test. P<0.05 indicates statistical significance.
The surface area of aorta occupied by atherosclerotic lesions was quantified by en face oil red 0 staining, using an approach modified from Palinski et al. After mice were killed, a catheter was inserted into the left ventricle and the arterial tree was perfused with PBS (25 ml), followed by 4% buffered formaldehyde (20 ml, PH 7.4) at a pressure of 100 mm Hg. Under a microscope (Leica M500) the entire aorta attached to the heart was dissected and the adventitial fat was dissected. The ascending aorta was transected, and the heart was placed in histo-choice for assessment of aortic root atherosclerosis. […]

[2] = tested on: Apo E knockout mice; assay: Quantification of aortic sinus lesions (oil red O staining of aortic root); format: in vivo, mouse; details: rosuvastatin 20 mg/kg/day; its own control 0.36 ± 0.10
Description: Thirty-four male Apo E knockout mice were obtained from Jackson Laboratories (Bar Harbor, Me.). The mice were fed with normal mouse chow until 2 months of age and randomly allocated into two groups (n=17 each). One group of mice was then fed a control Western high-fat diet (F5722, fat 20%, cholesterol 2.1 gm/kg). […] CCO-Oil has approximately 20 wt % C16:1n7-palmitoleate. The consistency of the food was a paste; it appeared to be enticing to the mice and well tolerated. Water was freely available throughout the course of the study. Blood samples were obtained 8 and 12 weeks after initiation of the diet. At 12 weeks, all mice were sacrificed by intraperitoneal injection of ketamine/xylazine. […] Data were presented as mean±SD. Statistical analysis was performed with t-test. P<0.05 indicates statistical significance.
The surface area of aorta occupied by atherosclerotic lesions was quantified by en face oil red 0 staining, using an approach modified from Palinski et al. After mice were killed, a catheter was inserted into the left ventricle and the arterial tree was perfused with PBS (25 ml), followed by 4% buffered formaldehyde (20 ml, PH 7.4) at a pressure of 100 mm Hg. Under a microscope (Leica M500) the entire aorta attached to the heart was dissected and the adventitial fat was dissected. […]

CC(C)c1nc(N(C)S(C)(=O)=O)nc(-c2ccc(F)cc2)c1/C=C/[C@@H](O)C[C@@H](O)CC(=O)O [Rosuvastatin]
Aortic lesion (% of surface area) [1]: 11.9 ± 1.9 %
Aortic sinus lesion size [2]: 0.35 ± 0.10 mm^2
